Results on 1 compound are retold here after publication PMC6894869, “Fragment-based design of small molecule PCSK9 inhibitors using simulated annealing of chemical potential simulations” (PLoS ONE, 2019).

Broadly, the pIC50 is the IC50 on a negative log10 scale, so that one unit is a factor of ten. Higher therefore signals a low IC50.

pIC50: −log10 of the molar value.

The assay has as its target PCSK9 (Homo sapiens, UniProt Q8NBP7). In words: SPR competition assay against the EGFa domain of LDLR. The assay is classed as binding.

For `COc1ccc2nc(N)[nH]c2c1C#N` [Fig 12A, cyano-benzimidazole derivative], the negative logarithm of the IC50 (pIC50) was 3.99.
